Ends that are not written are not given here.
Tested on: OCCM30 cells
Assay: Cell differentiation of OCCM30 cells (ALP activity)
Assay type: cell-based, mouse
Settings: DMEM containing 2% FBS; versus control (FIG. 11)
Method: As mouse-derived cementoblasts, cells of the OCCM30 cell strain (Bone, 1999 Jul., 25(1):39-47) were used. This cell strain was provided from Professor Somerman of School of Dentistry University of Washington.
As an index of cell differentiation, alkaline phosphatase (ALP) activity of cells was determined. Cells were inoculated in a 24-well culture plate at a ratio of 5×10^3 cells/well, added with the peptide (a) at various concentrations and cultured in DMEM or αMEM containing 2% FBS. One week after the time point when the cells reached a confluent state, ALP activity was determined by the following enzymochemical method (Bessey-Lowry method, Bessey O A, Lowry O H and Brock M J, A method for the rapid determination of alkaline phosphatase with five cubic millimeter of serum, J. Biol. Chem., 164:321-329, 1946).
The cultured cells were washed with PBS and then disrupted in 10 mM Tris-HCl buffer (pH 7.4, 500 μl) for 40 seconds by using an ultrasonic homogenizer (Handy Sonic model UR-20P, Tomy Seiko) and stirred. Then, 25 μl of this sample liquid was added to 125 μl of ALP buffer (0.1 M carbonate buffer, pH 9.8, 6.7 mM p-nitrophenyl phosphate, 2 mM MgCl2) and incubated at 37° C. for 30 minutes. The reaction was terminated by addition of 125 μl of 0.2 N NaOH, and absorbance was measured at 405 nm by using a microplate reader (Model 550, Bio-Rad Laboratories). […]

VPAFPRQPGTPGVASL [Peptide (a)]
cell differentiation promoting effect (ALP activity) on OCCM30 cells: significant cell differentiation promoting effect

— patent US7678884B2, “Biologically active peptide and agent containing the same” (Seikagaku Corporation, priority 2003, dated 2010)
